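Cultured in 96-well plates, cells were exposed to test compound for 48 hours across five concentrations. GI50 marks 50% less growth. TGI marks complete inhibition of growth.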
Tests used:
Assay in all cases: DTP human tumour cell line panel, 48 h
UACC-257 melanoma = tested on: UACC-257 melanoma
LOX IMVI melanoma = tested on: LOX IMVI melanoma
SF-268 CNS = tested on: SF-268 CNS
HL-60(TB) leukemia = tested on: HL-60(TB) leukemia
KM12 colon = tested on: KM12 colon
MOLT-4 leukemia = tested on: MOLT-4 leukemia
NCI-H460 lung = tested on: NCI-H460 lung
SNB-19 CNS = tested on: SNB-19 CNS
SK-MEL-5 melanoma = tested on: SK-MEL-5 melanoma
HT29 colon = tested on: HT29 colon

SMILES | TGI (UACC-257 melanoma) [µM] | TGI (LOX IMVI melanoma) [µM] | TGI (SF-268 CNS) [µM] | TGI (HL-60(TB) leukemia) [µM] | TGI (KM12 colon) [µM] | TGI (MOLT-4 leukemia) [µM] | TGI (NCI-H460 lung) [µM] | TGI (SNB-19 CNS) [µM] | TGI (SK-MEL-5 melanoma) [µM] | TGI (HT29 colon) [µM] | GI50 (UACC-257 melanoma) [nM] | GI50 (LOX IMVI melanoma) [µM] | GI50 (SF-268 CNS) [nM] | GI50 (HL-60(TB) leukemia) [nM] | GI50 (KM12 colon) [µM] | GI50 (MOLT-4 leukemia) [nM] | GI50 (NCI-H460 lung) [nM] | GI50 (SNB-19 CNS) [nM] | GI50 (SK-MEL-5 melanoma) [nM] | GI50 (HT29 colon) [nM]
NC(CCP(=O)(O)CCC1C=CC=CC1)C(=O)O (stereo not drawn) | > 100 | > 100 | > 100 | > 100 | > 100 | > 100 | > 100 | > 100 | > 100 | > 100 |  |  |  |  |  |  |  |  |  | 
CC(C)(C)[Si](C)(C)OCC1CCC(n2cnc3c(N)ncnc32)O1 (stereo not drawn) | > 100 | > 100 |  | > 100 | > 100 | > 100 | > 100 | > 100 | 34.4 | > 100 |  |  |  |  |  |  |  |  |  | 
COC(=O)c1ccc(N=NN(C)COc2ccc([N+](=O)[O-])cc2)cc1 | > 100 | > 100 | > 100 | 52.5 | > 100 | > 100 | > 100 | > 100 | > 100 | > 100 |  |  |  |  |  |  |  |  |  | 
O=[N+]([O-])c1ccc(Nc2nc3ccccc3s2)cc1 | 75.6 | 38.9 | 91.7 |  | > 100 | 30.3 | > 100 | > 100 | 56.7 | > 100 |  |  |  |  |  |  |  |  |  | 
COc1cc(C2=C(C#N)C(N)OC3=C2COc2ccccc23)cc(OC)c1OC (stereo not drawn) | > 100 | > 100 | 89.1 | > 100 | > 100 | > 100 | 84.8 | 30.6 | > 100 | > 100 |  |  |  |  |  |  |  |  |  | 
CC1=CC(=O)C(=O)C2=C1OC1(C2)C(C)CCC2C3(C)CCC(O)C(C)(C)C3CCC21C (stereo not drawn) | 34.3 | 35.8 | 63 | 5.51 | 29.9 | 78.4 | 35.1 | 32.2 | 33.4 | 40.1 |  |  |  |  |  |  |  |  |  | 
COC1CC(OC2CCC3(C)C(CCC45CCC(C6=CC(=O)OC6)C(C)(CCC43)C5=O)C2)OC(C)C1O (stereo not drawn) | > 100 | > 100 | 44 | 43.7 | > 100 | 65.7 | 32.4 | 63.6 | 41.9 | > 100 |  |  |  |  |  |  |  |  |  | 
NNc1nc2ccccc2s1 | > 100 | > 100 | > 100 | > 100 | > 100 | > 100 | > 100 | > 100 | > 100 | > 100 |  |  |  |  |  |  |  |  |  | 
Nc1ccc2c3c(n(CCCCl)c(=O)c2c1)-c1cc2c(cc1C3=O)OCO2 | > 100 | > 100 | > 100 | > 100 | > 100 | > 100 | > 100 | > 100 | 0.714 | > 100 | > 100000 | > 100 | > 100000 | > 100000 | 41.6 | 2140 | 140 | > 100000 | 120 | > 100000
CCC(=O)NC(Nc1ccc(O)cc1)(C(F)(F)F)C(F)(F)F | > 100 | > 100 | > 100 | 46.5 | > 100 | > 100 | > 100 | > 100 |  | > 100 |  |  |  |  |  |  |  |  |  | 
CC12CCC(C(=O)N3CC=CCC3)(OC1=O)C2(C)C (stereo not drawn) | > 100 | > 100 | > 100 | > 100 | > 100 | > 100 | > 100 | > 100 | > 100 | > 100 |  |  |  |  |  |  |  |  |  | 
c1cn2cc(-c3ccc4ncn(C5CCCCC5)c4c3)nc(-c3ccc4c(c3)ncn4C3CCCCC3)c2n1 | 3.62 |  | 3.15 | 4.57 |  | 5.22 | 4.02 | 4.95 | 2.83 | 5.2 | 2100 |  | 1590 | 1840 |  | 1640 | 1980 | 2110 | 1490 | 2440
O=C(O)C1Cc2c([nH]c3ccccc23)C=N1 (stereo not drawn) | > 100 | > 100 | > 100 | > 100 | > 31.7 | > 100 | > 100 | > 100 | > 100 | > 100 |  |  |  |  |  |  |  |  |  | 
